Measured values reported in paper PMC9774391 (ACS Omega, 2022).

What was measured:
Conditions in all cases: for inhibition at 1000 µM: 10^–3 M; for inhibition at 100 µM: 10^–4 M
MAO-A = biological target: T1, MAO-A (Homo sapiens, UniProt P21397); experiment: In vitro MAO-A inhibition assay (fluorometric); assay type: biochemical
T1 sequence (P21397 1-527): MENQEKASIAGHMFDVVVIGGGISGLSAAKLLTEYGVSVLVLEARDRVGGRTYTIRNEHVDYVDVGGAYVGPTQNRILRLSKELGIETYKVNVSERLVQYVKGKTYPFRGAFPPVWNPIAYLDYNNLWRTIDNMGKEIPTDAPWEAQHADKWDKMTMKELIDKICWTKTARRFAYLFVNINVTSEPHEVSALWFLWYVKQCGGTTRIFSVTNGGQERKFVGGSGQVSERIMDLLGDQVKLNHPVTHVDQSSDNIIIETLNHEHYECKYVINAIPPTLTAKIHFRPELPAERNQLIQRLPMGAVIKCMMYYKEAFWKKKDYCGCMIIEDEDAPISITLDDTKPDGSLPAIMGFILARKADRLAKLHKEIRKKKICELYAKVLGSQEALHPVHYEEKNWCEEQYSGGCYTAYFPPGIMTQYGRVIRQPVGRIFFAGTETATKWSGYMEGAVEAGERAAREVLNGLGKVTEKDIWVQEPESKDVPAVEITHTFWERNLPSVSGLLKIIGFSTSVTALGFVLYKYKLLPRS

AChE = AChE (Homo sapiens, UniProt P22303); experiment: biochemical
AChE, sequence (P22303 32-614): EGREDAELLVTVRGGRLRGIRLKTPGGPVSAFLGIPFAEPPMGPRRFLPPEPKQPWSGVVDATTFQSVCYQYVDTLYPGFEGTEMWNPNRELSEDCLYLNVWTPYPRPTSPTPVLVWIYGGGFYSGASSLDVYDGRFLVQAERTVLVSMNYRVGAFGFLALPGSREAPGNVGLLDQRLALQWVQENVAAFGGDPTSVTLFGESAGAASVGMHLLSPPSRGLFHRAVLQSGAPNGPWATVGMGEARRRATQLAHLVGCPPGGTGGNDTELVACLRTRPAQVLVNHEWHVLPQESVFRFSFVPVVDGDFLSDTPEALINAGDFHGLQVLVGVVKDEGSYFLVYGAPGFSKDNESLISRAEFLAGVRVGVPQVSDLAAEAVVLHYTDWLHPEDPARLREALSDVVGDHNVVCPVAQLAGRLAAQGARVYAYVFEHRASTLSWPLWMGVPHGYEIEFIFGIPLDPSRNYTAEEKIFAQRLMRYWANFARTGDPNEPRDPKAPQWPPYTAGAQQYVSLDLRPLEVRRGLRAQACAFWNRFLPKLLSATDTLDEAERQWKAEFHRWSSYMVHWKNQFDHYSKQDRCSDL
Description: (§1) According to the modified Ellman approach outlined in our team’s earlier work, the AChE and BChE inhibitory activities of the obtained compounds were evaluated.[18]−[21]

BChE = BChE (Homo sapiens, UniProt P06276); experiment: biochemical
BChE, sequence (P06276 29-602): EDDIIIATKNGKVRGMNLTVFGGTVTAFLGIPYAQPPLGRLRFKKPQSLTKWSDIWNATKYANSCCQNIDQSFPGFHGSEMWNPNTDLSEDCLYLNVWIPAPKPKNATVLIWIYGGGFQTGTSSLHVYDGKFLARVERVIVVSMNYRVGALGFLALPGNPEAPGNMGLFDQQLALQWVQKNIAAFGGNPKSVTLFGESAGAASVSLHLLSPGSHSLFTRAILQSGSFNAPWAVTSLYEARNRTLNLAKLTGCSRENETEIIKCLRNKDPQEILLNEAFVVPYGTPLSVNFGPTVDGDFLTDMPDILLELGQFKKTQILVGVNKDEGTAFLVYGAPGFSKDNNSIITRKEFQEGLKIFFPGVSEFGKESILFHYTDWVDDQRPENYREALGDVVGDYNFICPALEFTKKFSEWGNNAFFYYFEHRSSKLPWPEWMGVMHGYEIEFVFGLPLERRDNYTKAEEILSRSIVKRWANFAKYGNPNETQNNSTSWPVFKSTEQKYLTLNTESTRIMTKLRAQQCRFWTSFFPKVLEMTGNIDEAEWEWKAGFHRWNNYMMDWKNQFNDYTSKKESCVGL
Description: as §1

MAO-B = biological target: T2, MAO-B (Homo sapiens, UniProt P27338); experiment: In vitro MAO-B inhibition assay (fluorometric); assay type: biochemical
T2 sequence (P27338 1-520): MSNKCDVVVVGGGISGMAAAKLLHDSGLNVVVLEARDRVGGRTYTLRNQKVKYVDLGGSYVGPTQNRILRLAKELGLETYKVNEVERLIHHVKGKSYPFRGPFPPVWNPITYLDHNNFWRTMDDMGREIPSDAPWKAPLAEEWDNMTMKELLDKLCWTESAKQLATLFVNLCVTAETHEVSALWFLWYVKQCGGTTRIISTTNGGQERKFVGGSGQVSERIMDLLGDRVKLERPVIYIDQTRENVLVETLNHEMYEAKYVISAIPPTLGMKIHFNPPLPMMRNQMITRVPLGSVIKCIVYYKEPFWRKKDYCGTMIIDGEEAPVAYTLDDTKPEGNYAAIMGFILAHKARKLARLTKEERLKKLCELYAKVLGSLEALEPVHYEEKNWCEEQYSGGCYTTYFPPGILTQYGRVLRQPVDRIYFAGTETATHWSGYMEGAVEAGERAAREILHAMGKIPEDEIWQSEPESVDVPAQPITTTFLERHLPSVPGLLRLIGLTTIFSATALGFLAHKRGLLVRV

| Compound | inhibition at 1000 µM (MAO-A) [%] | inhibition at 100 µM (MAO-A) [%] | inhibition at 1000 µM (AChE) [%] | inhibition at 100 µM (AChE) [%] | inhibition at 1000 µM (BChE) [%] | inhibition at 100 µM (BChE) [%] | inhibition at 1000 µM (MAO-B) [%] | inhibition at 100 µM (MAO-B) [%] |
| --- | --- | --- | --- | --- | --- | --- | --- | --- |
| COc1ccc2c(c1)C/C(=C\c1ccc(NC(=O)CN3CCN(C)CC3)cc1)C2=O [D1] | 59 ± 0.598 | 21.4 ± 0.424 | 83.2 ± 1.09 | 47.3 ± 0.887 | 94.6 ± 0.972 | 32.8 ± 0.455 | 65.12 ± 0.623 | 38.7 ± 0.512 |
| COc1ccc2c(c1)C(=O)/C(=C/c1ccc(NC(=O)CN3CCN(C)CC3)cc1)C2 [D2] | 46.6 ± 0.853 | 27.7 ± 0.909 | 50.3 ± 0.731 | 42.9 ± 0.601 | 61.3 ± 0.18 | 23.6 ± 0.226 | 75.3 ± 0.987 | 45.3 ± 0.859 |
| COc1cc2c(cc1OC)C(=O)/C(=C/c1ccc(NC(=O)CN3CCN(C)CC3)cc1)C2 [D3] | 57.5 ± 0.875 | 26.5 ± 0.365 | 99.3 ± 2.34 | 44.1 ± 0.906 | 98.1 ± 1.57 | 40.4 ± 0.548 | 67.2 ± 0.751 | 36.2 ± 0.452 |
| CCN1CCN(CC(=O)Nc2ccc(/C=C3\Cc4cc(OC)ccc4C3=O)cc2)CC1 [D4] | 67.6 ± 1.06 | 20.9 ± 0.455 | 74.5 ± 1.02 | 38.2 ± 0.479 | 92.9 ± 2.41 | 21.21 ± 0.11 | 77.1 ± 1.06 | 36.3 ± 0.496 |
| CCN1CCN(CC(=O)Nc2ccc(/C=C3\Cc4ccc(OC)cc4C3=O)cc2)CC1 [D5] | 66.6 ± 1.49 | 24.7 ± 0.514 | 38.6 ± 0.518 | 31.7 ± 0.499 | 55.6 ± 549 | 26.3 ± 0.211 | 75.6 ± 1.08 | 44.4 ± 0.627 |
| CCN1CCN(CC(=O)Nc2ccc(/C=C3\Cc4cc(OC)c(OC)cc4C3=O)cc2)CC1 [D6] | 93.27 ± 0.309 | 33.9 ± 1.13 | 97.5 ± 2.23 | 31.3 ± 0.697 | 96.51 ± 0.317 | 32.8 ± 0.908 | 95.5 ± 1.25 | 48.6 ± 1.13 |
| C=CCN1CCN(CC(=O)Nc2ccc(/C=C3\Cc4cc(OC)ccc4C3=O)cc2)CC1 [D7] | 61.89 ± 0.618 | 41.4 ± 0.808 | 61.3 ± 1.01 | 34.8 ± 0.472 | 56.8 ± 0.971 | 21.2 ± 0.378 | 66.33 ± 0.557 | 47.9 ± 0.952 |
| C=CCN1CCN(CC(=O)Nc2ccc(/C=C3\Cc4ccc(OC)cc4C3=O)cc2)CC1 [D8] | 57.2 ± 1.34 | 26.6 ± 0.455 | 51 ± 0.995 | 42 ± 0.661 | 51 ± 0.667 | 28.4 ± 0.409 | 78.6 ± 1.15 | 46.2 ± 0.547 |
| C=CCN1CCN(CC(=O)Nc2ccc(/C=C3\Cc4cc(OC)c(OC)cc4C3=O)cc2)CC1 [D9] | 32.6 ± 0.389 | 24.5 ± 0.459 | 81.3 ± 1.13 | 45.2 ± 0.996 | 82.8 ± 1.03 | 28.2 ± 0.679 | 58.63 ± 0.523 | 34.8 ± 0.384 |
| C#CCN1CCN(CC(=O)Nc2ccc(/C=C3\Cc4cc(OC)ccc4C3=O)cc2)CC1 [D10] | 48.9 ± 0.966 | 22.4 ± 0.662 | 71.3 ± 1.01 | 29.4 ± 0.587 | 41.3 ± 0.755 | 26.6 ± 1.35 | 68.96 ± 0.578 | 42.6 ± 0.652 |
| C#CCN1CCN(CC(=O)Nc2ccc(/C=C3\Cc4ccc(OC)cc4C3=O)cc2)CC1 [D11] | 77 ± 1.59 | 25.5 ± 0.52 | 66.6 ± 0.985 | 49.9 ± 0.809 | 91.7 ± 1.21 | 33.9 ± 0.569 | 79.6 ± 1.13 | 35.6 ± 0.488 |
| C#CCN1CCN(CC(=O)Nc2ccc(/C=C3\Cc4cc(OC)c(OC)cc4C3=O)cc2)CC1 [D12] | 95.76 ± 0.49 | 45.1 ± 0.466 | 96.5 ± 2.7 | 49.7 ± 0.988 | 98.4 ± 1.79 | 48.8 ± 0.529 | 96.2 ± 1.34 | 49 ± 0.623 |
